Test results taken from paper PMC11003478, “Spiro heterocycles bearing piperidine moiety as potential scaffold for antileishmanial activity: synthesis, biological evaluation, and in silico studies” (Journal of Enzyme Inhibition and Medicinal Chemistry, 2022).
Several values for one entry are separate records, joined by “and”; a condition that tells them apart may be missing. Identical values can stand only once. Like-named read-outs stand apart in the source and are kept apart here. Values belong to the compound of their own block, whether it stands above or below them.

Columns and labels:
[1] = system: L. major axenic amastigote form; test: In vitro antileishmanial activity, axenic amastigote form; format: cell-based, Leishmania major
Method: (§1) We used both promastigote and amastigote forms of L. major strain for the in vitro evaluation. All experimental steps were carried out as reported earlier[35]^,[36]. The value of the compound concentration causing 50% inhibition (IC50) was calculated. The software employed is Graph Pad Prism 6 software (GraphPad Software, San Diego, CA, USA).

[2] = In vitro cytotoxicity testing on VERO cells; conditions: African green monkey
VERO cells = test: In vitro cytotoxicity testing on VERO cells; conditions: for SI (selectivity index; SI = CC50/IC50): CC50 VERO cells / antileishmanial IC50; for CC50 (VERO cells) higher than IC50 (promastigotes): VERO cells versus promastigotes of leishmania parasite
[3] = system: L. major promastigote form; test: In vitro antileishmanial activity, promastigote form; format: cell-based, Leishmania major; conditions: read-out: Antipromastigotes IC50, µM ± SD
Method: All synthesised compounds were evaluated against L. major promastigote form.
as §1

[4] = system: L. major promastigote (folate pathway, DHFR and PTR1); test: Reversal of antileishmanial activity by folic acid and folinic acid (folate pathway inhibition); format: cell-based, Leishmania major; conditions: for Percentage survival, Folic acid 100 µM / Percentage survival, No Cpd added: test compound above its IC50 (trimethoprim 100 µM); for Percentage survival, No Cpd added: no folic or folinic acid; for Percentage survival, Folic acid 20µM: test compound above its IC50, folic acid 20µM; for Percentage survival, Folinic acid 20 µM: test compound above its IC50, folinic acid 20 µM; for Percentage survival, Folinic acid 100 µM: test compound above its IC50, folinic acid 100 µM
Method: It is worthy to mention that folic acid competes for the active sites of both DHFR and PTR1 while folinic acid involves in DNA synthesis without any necessity to undergo activation.
This experiment was performed on the in vitro growth assay for the promastigote and based on the previously published methodology. All experimental steps were performed as reported earlier.

Leishmania = system: Leishmania; parameters: method as in PMID 34311084; conditions: cited from earlier work
[5] = system: bisubunit DNA topoisomerase IB of L. donovani; parameters: method as in PMID 27503653; conditions: cited from earlier work
amastigote = system: amastigote; parameters: method as in PMID 27503653; conditions: read-out: Anti-amastigote EC50; cited from earlier work
promastigote = system: promastigote; parameters: method as in PMID 27503653; conditions: read-out: Anti-promastigote EC50; cited from earlier work
[6] = Leishmania major, L. major axenic amastigote, 50% growth inhibition, read-out: Antiamastigote IC50, µM ± SD
[7] = VERO cells (African green monkey kidney cells)
[8] = Leishmania major, L. major promastigote, 50% growth inhibition
[9] = Leishmania major, read-out: Antiamastigote IC50, µM ± SD, L. major axenic amastigote, 50% growth inhibition

Structure (SMILES): CCCCCCCCCCCCCCCCOP(=O)([O-])OCC[N+](C)(C)C [Miltefosine, reference compound]
IC50 [1, 6]: 8.08 ± 0.24 µM | CC50 at 72 h [2, 7]: 99.7 µM | SI (selectivity index; SI = CC50/IC50) (VERO cells): 12.6 | IC50 ([3]; L. major promastigote, 50% growth inhibition): 7.9 ± 0.28 µM | IC50 [3, 8]: 7.89 µM

Structure (SMILES): COc1cc(Cc2cnc(N)nc2N)cc(OC)c1OC [Trimethoprim, reference compound]
Percentage survival, Folic acid 100 µM [4]: 99% | Percentage survival, No Cpd added [4]: 72%

Structure (SMILES): O=C1CNCC2(CC(c3ccccc3)N(Cc3ccccc3)C(c3ccccc3)C2)N1c1ccccc1 (stereo not drawn) [Compound 6a, 9-Benzyl-1,8,10-triphenyl-1,4,9-triazaspiro[5.5]undecan-2-one]
IC50 [1, 9]: 4.67 ± 0.16 µM | melting point: 150 to 153 °C | IC50 ([3]; Leishmania major): 4.42 ± 0.22 µM

Structure (SMILES): c1ccc(CN2C(c3ccccc3)CC3(CC2c2ccccc2)NCCN3)cc1 (stereo not drawn) [Compound 13, 8-Benzyl-7,9-diphenyl-1,4,8-triazaspiro[4.5]decane]
IC50 [1, 6]: 3.24 ± 0.22 µM | melting point: 209 to 211 °C | IC50 [3, 8]: 1.34 ± 0.14 µM

Structure (SMILES): CN(C)c1ccc(/C=N/N2C(=O)C(C#N)=CC23c2ccccc2Nc2ccccc23)cc1 [C]
Antileishmanial EC50 (Leishmania): 0.97 µg/mL

Structure (SMILES): O=C1CNC(=O)C2(CC(c3ccccc3)N(Cc3ccccc3)C(c3ccccc3)C2)N1c1ccccc1 (stereo not drawn) [Compound 9a, 9-Benzyl-1,8,10-triphenyl-1,4,9-triazaspiro[5.5]undecane-2,5-dione]
IC50 [1, 9]: 0.5 µM | IC50 ([1]; Leishmania major, read-out: Antileishmanial IC50 µM, IC50 used for the selectivity index in Table 4): 0.501 µM | IC50 ([1]; read-out: Antiamastigote IC50, µM ± SD, L. major axenic amastigote, 50% growth inhibition): 0.501 ± 0.16 µM | Percentage survival, Folic acid 100 µM [4]: 84% | Percentage survival, No Cpd added [4]: 26% | Percentage survival, Folic acid 20µM [4]: 76% | Percentage survival, Folinic acid 20 µM [4]: 80% | Percentage survival, Folinic acid 100 µM [4]: 92% | CC50 at 72 h [2]: 125 µg/mL and 249 µM | SI (selectivity index; SI = CC50/IC50) (VERO cells): 497.37 | CC50 (VERO cells) higher than IC50 (promastigotes) (VERO cells): at least 2 orders of magnitude | melting point: 201 to 203 °C | IC50 ([3]; Leishmania major): 0.41 ± 0.04 µM

Structure (SMILES): COC(=O)C1CC2CCCN2C12C(=O)N(Cc1ccccc1)c1ccccc12 (stereo not drawn) [B]
inhibition of bisubunit DNA topoisomerase IB [5]: catalytic inhibitor | EC50 (amastigote): 0.53 to 0.9 µM | EC50 (promastigote): 1.24 to 1.41 µM

Further lines, with some results ahead:

IC50 [1, 6]: 4.87 ± 0.32 µM | melting point: 180 to 183 °C | IC50 [3, 8]: 2.44 ± 0.22 µM
Structure (SMILES): N=C1N(c2ccccc2)C(=O)N(c2ccccc2)C12CC(c1ccccc1)N(Cc1ccccc1)C(c1ccccc1)C2 (stereo not drawn) [Compound 11a, 8-Benzyl-4-imino-1,3,7,9-tetraphenyl-1,3,8-triazaspiro[4.5]decan-2-one]

melting point: > 300 °C
Structure (SMILES): N#CC1=C(N)N(c2ccccc2)C2(CNC1c1ccccc1)CC(c1ccccc1)N(Cc1ccccc1)C(c1ccccc1)C2 (stereo not drawn) [Compound 7a, 8-Amino-3-benzyl-2,4,7,10-tetraphenyl-3,7,11-triazaspiro[5.6]dodec-8-ene-9-carbonitrile]

IC50 [1, 6]: 4.89 ± 0.34 µM | melting point: 168 to 170 °C | IC50 [3, 8]: 3.27 ± 0.32 µM
Structure (SMILES): N=C1N(c2ccccc2)C(=S)N(c2ccccc2)C12CC(c1ccccc1)N(Cc1ccccc1)C(c1ccccc1)C2 (stereo not drawn) [Compound 11b, 8-Benzyl-4-imino-1,3,7,9-tetraphenyl-1,3,8-triazaspiro[4.5]decane-2-thione]

IC50 [1, 6]: 5.45 ± 0.22 µM | melting point: 128 to 130 °C | IC50 [3, 8]: 5.4 ± 0.24 µM
Structure (SMILES): O=C1NCC2(CC(c3ccccc3)N(Cc3ccccc3)C(c3ccccc3)C2)N1c1ccccc1 (stereo not drawn) [Compound 5a, 8-Benzyl-1,7,9-triphenyl-1,3,8-triazaspiro[4.5]decan-2-one]

IC50 [1, 6]: 3.43 ± 0.14 µM | IC50 [3, 8]: 2.21 ± 0.22 µM
Structure (SMILES): N=C1NNC2(CC(c3ccccc3)N(Cc3ccccc3)C(c3ccccc3)C2)S1 (stereo not drawn) [Compound 12, 8-Benzyl-7,9-diphenyl-4-thia-1,2,8-triazaspiro[4.5]decan-3-imine]

IC50 [1, 6]: 0.89 µM | melting point: 188 to 190 °C | IC50 [3, 8]: 1.12 ± 0.12 µM
Structure (SMILES): O=C1NC(=O)C2(CC(c3ccccc3)N(Cc3ccccc3)C(c3ccccc3)C2)N1c1ccccc1 (stereo not drawn) [Compound 8a, 8-Benzyl-1,7,9-triphenyl-1,3,8-triazaspiro[4.5]decane-2,4-dione]
IC50 ([1]; Leishmania major, IC50 used for the selectivity index in Table 4, read-out: Antileishmanial IC50): 0.895 µM | Percentage survival, Folic acid 100 µM [4]: 81% | Percentage survival, No Cpd added [4]: 20% | Percentage survival, Folic acid 20µM [4]: 72% | Percentage survival, Folinic acid 20 µM [4]: 76% | Percentage survival, Folinic acid 100 µM [4]: 87% | CC50 at 72 h [2, 7]: 62.5 µg/mL and 128 µM | SI (selectivity index; SI = CC50/IC50) (VERO cells): 143.38 | CC50 (VERO cells) higher than IC50 (promastigotes) (VERO cells): at least 2 orders of magnitude
